In US20230158049A1, “COMPOSITIONS AND METHODS FOR TREATING VIRUSES” (University of Virginia Patent Foundation, priority 2020, published 2023):

Test system: SARS-CoV-2
Conditions: […]

With `C[C@H]1c2cccc(O)c2C(=O)C2=C(O)[C@]3(O)C(=O)C(C(N)=O)=C(O)[C@@H](N(C)C)[C@@H]3[C@@H](O)[C@@H]21` [doxycycline] the “time to symptom improvement” value (doxycycline 100 mg twice daily with osimertinib) was no more than 1 week and the “time to improvement in all symptoms” value (doxycycline 200 mg then 100 mg daily for 5 days) was no more than 5 days.
